Values belong to the compound of their own block, whether it stands above or below them.
Legend:
[1] = target: Histone-lysine N-methyltransferase ASH1L (Homo sapiens) (UniProt Q9NR48); test: Selectivity interaction (Methyltransferase screen (Scintillation proximity assays)) EUB0000255b ASH1L
[2] = target: Dual specificity mitogen-activated protein kinase kinase 1 (Homo sapiens, UniProt Q02750); test: Selectivity interaction (KinomeScan (DiscoverX)) EUB0000655a MAP2K1; conditions: at 10 µM
[3] = target: Myosin light chain kinase, smooth muscle (Homo sapiens, UniProt Q15746); test: Selectivity interaction (KinomeScan (DiscoverX)) EUB0000655a MYLK; conditions: at 10 µM
Myosin light chain kinase, smooth muscle, sequence (Q15746 whole entry): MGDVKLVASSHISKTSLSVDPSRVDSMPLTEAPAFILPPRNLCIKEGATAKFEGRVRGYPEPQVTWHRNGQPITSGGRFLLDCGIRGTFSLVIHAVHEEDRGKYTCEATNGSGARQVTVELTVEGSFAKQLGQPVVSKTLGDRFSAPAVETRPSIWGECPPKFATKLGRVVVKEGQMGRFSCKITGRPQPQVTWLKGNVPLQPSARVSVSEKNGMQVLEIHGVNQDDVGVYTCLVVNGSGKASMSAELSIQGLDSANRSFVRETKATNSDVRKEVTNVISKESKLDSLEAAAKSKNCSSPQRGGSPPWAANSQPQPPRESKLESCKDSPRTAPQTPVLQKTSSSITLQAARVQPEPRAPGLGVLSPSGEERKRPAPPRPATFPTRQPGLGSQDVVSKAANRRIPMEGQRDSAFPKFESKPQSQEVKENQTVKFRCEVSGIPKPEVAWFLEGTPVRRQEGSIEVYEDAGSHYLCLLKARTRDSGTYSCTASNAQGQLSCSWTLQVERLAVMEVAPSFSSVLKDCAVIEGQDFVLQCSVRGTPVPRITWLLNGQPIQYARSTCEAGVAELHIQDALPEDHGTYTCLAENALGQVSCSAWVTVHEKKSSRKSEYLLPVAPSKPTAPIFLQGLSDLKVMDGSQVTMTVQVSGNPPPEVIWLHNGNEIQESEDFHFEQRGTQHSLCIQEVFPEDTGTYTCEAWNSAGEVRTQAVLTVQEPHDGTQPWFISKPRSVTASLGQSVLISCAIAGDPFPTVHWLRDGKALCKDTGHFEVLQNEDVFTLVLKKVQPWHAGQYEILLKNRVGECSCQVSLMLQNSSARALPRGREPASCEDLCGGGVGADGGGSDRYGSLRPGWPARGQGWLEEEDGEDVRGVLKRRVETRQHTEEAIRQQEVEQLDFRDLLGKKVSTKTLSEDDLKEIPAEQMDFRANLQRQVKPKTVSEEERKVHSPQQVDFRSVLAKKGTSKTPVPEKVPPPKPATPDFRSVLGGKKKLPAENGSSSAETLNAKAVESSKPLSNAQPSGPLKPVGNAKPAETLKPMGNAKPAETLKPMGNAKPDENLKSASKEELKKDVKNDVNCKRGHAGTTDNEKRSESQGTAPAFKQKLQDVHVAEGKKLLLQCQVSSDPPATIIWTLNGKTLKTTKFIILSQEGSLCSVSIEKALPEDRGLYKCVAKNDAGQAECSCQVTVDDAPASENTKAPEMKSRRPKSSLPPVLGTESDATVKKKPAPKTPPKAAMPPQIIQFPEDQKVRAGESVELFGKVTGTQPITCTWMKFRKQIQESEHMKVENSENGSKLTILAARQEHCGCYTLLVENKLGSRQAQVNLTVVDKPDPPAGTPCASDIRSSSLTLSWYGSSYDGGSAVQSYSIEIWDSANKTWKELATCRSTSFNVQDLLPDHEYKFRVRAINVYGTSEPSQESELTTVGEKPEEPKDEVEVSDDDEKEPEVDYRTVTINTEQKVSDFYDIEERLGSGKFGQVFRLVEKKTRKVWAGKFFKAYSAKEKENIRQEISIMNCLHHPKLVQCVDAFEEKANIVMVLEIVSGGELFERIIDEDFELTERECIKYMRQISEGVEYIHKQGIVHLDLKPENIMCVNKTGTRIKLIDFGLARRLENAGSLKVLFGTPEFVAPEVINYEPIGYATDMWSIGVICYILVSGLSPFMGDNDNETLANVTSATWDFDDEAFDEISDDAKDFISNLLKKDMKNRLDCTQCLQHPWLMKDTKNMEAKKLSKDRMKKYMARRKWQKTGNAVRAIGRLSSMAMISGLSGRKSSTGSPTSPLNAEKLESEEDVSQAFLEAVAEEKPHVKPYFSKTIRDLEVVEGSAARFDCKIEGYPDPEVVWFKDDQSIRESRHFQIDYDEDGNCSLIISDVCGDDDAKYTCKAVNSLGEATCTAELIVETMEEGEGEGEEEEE

[4] = target: T1, Dual serine/threonine and tyrosine protein kinase (Homo sapiens) (UniProt Q6XUX3); test: Selectivity interaction (KinomeScan (DiscoverX)) EUB0001619a DSTYK; conditions: at 1 µM
T1 sequence (whole entry): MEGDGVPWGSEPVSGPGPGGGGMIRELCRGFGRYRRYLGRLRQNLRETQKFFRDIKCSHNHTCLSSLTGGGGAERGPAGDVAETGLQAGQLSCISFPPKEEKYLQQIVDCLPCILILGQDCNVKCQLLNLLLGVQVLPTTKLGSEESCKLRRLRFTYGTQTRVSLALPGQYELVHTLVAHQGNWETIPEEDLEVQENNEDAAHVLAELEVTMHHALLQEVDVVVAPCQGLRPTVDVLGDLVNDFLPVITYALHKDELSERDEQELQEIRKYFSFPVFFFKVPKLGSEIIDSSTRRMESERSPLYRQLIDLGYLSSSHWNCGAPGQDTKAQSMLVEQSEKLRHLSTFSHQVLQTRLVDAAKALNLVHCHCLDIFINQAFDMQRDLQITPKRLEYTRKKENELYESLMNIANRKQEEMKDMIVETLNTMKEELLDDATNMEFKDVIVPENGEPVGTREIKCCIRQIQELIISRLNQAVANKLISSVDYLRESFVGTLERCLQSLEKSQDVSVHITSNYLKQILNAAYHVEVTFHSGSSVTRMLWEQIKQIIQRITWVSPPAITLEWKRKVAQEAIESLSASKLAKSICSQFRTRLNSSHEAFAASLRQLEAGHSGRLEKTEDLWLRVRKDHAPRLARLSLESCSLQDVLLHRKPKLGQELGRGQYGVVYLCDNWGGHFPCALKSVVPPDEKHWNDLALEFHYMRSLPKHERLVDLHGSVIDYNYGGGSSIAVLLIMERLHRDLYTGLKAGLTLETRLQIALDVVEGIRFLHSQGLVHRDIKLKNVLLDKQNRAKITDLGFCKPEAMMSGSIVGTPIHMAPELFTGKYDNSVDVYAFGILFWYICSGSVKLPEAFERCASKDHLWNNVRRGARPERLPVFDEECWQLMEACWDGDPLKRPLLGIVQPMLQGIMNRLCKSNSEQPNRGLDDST

[5] = target: Mitogen-activated protein kinase 10 (Homo sapiens, UniProt P53779); test: Selectivity interaction (Kinase panel (enzymatic assay)) EUB0000595a MAPK10
Mitogen-activated protein kinase 10, sequence (P53779 whole entry): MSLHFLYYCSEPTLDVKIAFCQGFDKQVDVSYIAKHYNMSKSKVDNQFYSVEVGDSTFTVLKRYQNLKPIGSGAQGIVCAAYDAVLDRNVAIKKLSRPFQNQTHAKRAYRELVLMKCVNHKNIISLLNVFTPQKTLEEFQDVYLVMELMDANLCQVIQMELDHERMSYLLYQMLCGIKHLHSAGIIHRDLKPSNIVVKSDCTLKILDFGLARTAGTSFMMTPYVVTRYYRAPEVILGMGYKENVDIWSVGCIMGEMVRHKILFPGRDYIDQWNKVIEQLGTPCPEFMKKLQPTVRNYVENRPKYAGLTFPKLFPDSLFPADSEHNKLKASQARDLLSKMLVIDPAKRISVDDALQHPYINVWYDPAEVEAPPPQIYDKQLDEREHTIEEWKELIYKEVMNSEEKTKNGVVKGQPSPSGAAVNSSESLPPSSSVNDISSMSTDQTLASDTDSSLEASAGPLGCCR

[6] = target: Serine/threonine-protein kinase 38-like (Homo sapiens) (UniProt Q9Y2H1); test: Selectivity interaction (ActivX KiNativ screen (kinase selectivity in THP-1 cell lysates)) EUB0000639a STK38L; format: subcellular; conditions: lysate, at 5 µM
Serine/threonine-protein kinase 38-like (Homo sapiens), sequence (Q9Y2H1 2-464 limits assumed): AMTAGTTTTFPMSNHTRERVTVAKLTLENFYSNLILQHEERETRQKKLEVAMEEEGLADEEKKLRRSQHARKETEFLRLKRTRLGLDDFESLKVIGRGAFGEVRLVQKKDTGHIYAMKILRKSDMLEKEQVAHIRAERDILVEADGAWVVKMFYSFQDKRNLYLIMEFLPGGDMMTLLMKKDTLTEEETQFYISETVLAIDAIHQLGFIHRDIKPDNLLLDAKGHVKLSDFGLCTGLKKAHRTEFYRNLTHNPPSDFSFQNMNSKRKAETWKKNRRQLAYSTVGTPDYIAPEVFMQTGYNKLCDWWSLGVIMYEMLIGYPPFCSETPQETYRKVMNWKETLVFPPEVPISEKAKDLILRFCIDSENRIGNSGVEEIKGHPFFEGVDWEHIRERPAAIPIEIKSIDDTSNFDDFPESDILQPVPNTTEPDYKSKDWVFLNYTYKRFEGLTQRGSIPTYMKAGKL

[7] = target: T2, Tyrosine-protein kinase Tec (Homo sapiens) (UniProt P42680); test: Selectivity interaction (ActivX KiNativ screen (kinase selectivity in THP-1 cell lysates)) EUB0000639a TEC; format: subcellular; conditions: lysate
T2 sequence (whole entry): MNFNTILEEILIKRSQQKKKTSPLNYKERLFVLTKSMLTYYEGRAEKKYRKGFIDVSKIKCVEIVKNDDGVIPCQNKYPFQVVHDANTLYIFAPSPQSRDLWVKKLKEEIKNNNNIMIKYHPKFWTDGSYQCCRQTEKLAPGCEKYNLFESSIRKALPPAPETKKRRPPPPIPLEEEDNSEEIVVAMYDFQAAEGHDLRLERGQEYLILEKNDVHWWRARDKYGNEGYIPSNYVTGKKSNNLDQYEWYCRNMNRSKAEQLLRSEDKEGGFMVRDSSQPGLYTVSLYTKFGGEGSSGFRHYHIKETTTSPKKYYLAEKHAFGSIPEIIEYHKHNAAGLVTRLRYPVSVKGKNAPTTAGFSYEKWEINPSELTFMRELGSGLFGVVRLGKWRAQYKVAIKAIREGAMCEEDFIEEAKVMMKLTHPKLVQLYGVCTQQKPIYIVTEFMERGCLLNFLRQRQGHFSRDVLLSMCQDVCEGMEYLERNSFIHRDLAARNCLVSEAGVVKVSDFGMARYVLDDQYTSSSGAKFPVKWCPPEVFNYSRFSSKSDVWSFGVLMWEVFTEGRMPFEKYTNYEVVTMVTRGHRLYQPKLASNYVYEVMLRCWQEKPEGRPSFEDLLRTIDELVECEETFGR

[8] = target: Dual specificity testis-specific protein kinase 1 (Homo sapiens) (UniProt Q15569); test: Selectivity interaction (KinomeScan (DiscoverX)) EUB0000229b TESK1; conditions: at 10 µM
[9] = target: Protein kinase C theta type (Homo sapiens, UniProt Q04759); test: Selectivity interaction (ProQinase) EUB0000171b PRKCQ
Protein kinase C theta type, sequence (Q04759 whole entry, looked up): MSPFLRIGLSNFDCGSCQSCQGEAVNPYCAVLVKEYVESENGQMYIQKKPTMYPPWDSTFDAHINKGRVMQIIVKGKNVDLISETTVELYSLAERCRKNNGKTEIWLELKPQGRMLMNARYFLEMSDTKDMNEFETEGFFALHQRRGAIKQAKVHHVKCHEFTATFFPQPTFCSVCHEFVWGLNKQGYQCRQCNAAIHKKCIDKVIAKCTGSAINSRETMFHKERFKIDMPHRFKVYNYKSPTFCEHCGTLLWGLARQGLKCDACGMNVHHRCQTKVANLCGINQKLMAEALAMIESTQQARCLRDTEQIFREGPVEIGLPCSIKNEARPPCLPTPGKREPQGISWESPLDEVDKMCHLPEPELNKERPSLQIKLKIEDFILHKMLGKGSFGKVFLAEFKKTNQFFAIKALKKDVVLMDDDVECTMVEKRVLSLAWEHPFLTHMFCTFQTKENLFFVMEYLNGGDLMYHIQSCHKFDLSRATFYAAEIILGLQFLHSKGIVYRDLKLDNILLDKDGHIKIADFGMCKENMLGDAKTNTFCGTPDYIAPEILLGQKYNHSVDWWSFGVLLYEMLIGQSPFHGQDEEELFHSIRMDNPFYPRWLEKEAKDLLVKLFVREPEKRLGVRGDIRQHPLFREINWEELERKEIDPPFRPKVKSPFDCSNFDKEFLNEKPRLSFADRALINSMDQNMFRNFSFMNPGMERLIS

[10] = target: SRSF protein kinase 2 (Homo sapiens) (UniProt P78362); test: Selectivity interaction (KinomeScan (DiscoverX)) EUB0001049a SRPK2; conditions: at 1 µM
SRSF protein kinase 2 (Homo sapiens), sequence (P78362 whole entry, looked up): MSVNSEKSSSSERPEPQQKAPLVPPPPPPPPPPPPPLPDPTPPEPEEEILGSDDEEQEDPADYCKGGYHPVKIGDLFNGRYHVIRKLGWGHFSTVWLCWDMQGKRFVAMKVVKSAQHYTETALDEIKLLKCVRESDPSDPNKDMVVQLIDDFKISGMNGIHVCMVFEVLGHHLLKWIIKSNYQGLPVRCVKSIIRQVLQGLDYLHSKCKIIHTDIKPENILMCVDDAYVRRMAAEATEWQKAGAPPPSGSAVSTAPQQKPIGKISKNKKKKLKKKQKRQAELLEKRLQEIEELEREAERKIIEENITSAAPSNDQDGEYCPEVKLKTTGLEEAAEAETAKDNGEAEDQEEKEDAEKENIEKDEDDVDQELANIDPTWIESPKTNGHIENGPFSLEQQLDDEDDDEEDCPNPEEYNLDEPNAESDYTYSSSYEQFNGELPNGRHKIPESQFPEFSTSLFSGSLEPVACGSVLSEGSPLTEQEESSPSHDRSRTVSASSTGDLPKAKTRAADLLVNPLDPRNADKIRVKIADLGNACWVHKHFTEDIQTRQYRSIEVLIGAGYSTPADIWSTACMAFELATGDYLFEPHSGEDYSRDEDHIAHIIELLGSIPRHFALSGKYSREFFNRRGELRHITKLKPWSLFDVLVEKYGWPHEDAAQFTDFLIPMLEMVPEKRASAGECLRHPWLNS

[11] = target: Protein kinase C delta type (Homo sapiens) (UniProt Q05655); test: Selectivity interaction (KinomeScan (DiscoverX)) EUB0000092b PRKCD; conditions: at 10 µM

Dual specificity mitogen-activated protein kinase kinase 1, sequence (Q02750 whole entry): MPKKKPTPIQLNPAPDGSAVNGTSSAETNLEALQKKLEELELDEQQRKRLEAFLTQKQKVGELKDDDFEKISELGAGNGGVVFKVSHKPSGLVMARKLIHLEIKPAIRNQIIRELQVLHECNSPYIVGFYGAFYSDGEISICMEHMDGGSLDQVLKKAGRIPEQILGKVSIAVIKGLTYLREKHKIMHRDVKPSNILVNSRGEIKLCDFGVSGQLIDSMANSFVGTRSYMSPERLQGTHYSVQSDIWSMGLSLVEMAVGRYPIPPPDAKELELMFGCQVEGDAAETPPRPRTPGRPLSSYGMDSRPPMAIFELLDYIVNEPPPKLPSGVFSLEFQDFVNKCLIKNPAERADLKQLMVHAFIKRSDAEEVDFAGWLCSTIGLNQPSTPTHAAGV

Compound: COCCN1CCC(c2cc(CN(C)C(=O)c3cccc(Oc4ccccc4)c3)ccn2)CC1
% activity ([1]; at 1 µM): > 95%
% activity ([1]; at 10 µM): > 90%

Compound: CN(C)CCOc1ccc(-c2nc(-c3ccncc3)c(-c3ccc4c(c3)CC/C4=N\O)[nH]2)cc1
% of control [2]: 99%
% of control [3]: 98%

Compound: N#Cc1cccc(-c2c[nH]c3ncnc(N4CCOCC4)c23)c1
% of control [4]: 91%

Compound: COCC(=O)NC/C=C/c1ccc2ncnc(Nc3ccc(Oc4ccc(C)nc4)c(C)c3)c2c1 [CP-724714]
IC50 [5]: > 10 µM

% of inhibition [6]: 77.4%
% of inhibition ([7]; at 0.01 µM): 6%
% of inhibition ([7]; at 0.04 µM): 0%
% of inhibition ([7]; at 0.2 µM): -2.1%
% of inhibition ([7]; at 1 µM): -3.6%
% of inhibition ([7]; at 5 µM): -0.9%
Compound: CC[C@@H]1[C@H](F)C(=O)N[C@@H]1COc1nccc2cc(C(N)=O)c(OC)cc12 [ZIMLOVISERTIB]

Compound: COc1cc(N(C)c2ccnc3ccc(C(F)(F)F)cc23)cc(OC)c1OC
% binding [8]: 90%

% of control ([9]; at 1 µM): 97%
% of control ([9]; at 5 µM): 96%
Compound: C=CC(=O)Nc1cccc(C(=O)Nc2ccc(Nc3cc(-c4[nH]c(SC)nc4C)ccn3)cc2)c1

Compound: COc1cc(Nc2nc(C)cc(-c3cnn4nc(OC)ccc34)n2)cc(C(F)(F)F)c1
% of control [10]: 100%

Compound: CCC(=O)N1CCN(c2ccc(-n3c(=O)ccc4cnc5ccc(-c6cnc7ccccc7c6)cc5c43)cc2C(F)(F)F)CC1
% of control [11]: 82%
